Experimental findings from PMC11364104, “Discovery of SARS-CoV-2 papain-like protease (PL^pro) inhibitors with efficacy in a murine infection model” (Science Advances, 2024) are described below.

Data set [1] has as its target Human Immunodeficiency Virus-1 protease (Human immunodeficiency virus type 1 group M subtype B, UniProt P04585). Put plainly: biochemical.
Data set [2] concerns the target T1, Androgen Receptor (Binding) (Homo sapiens, UniProt P10275).
T1 construct: purchased Eurofins Cerep
Put plainly: CEREP NHR-binding.

Data set [3] has as its target T2, Norepinephrine Transporter (Homo sapiens, UniProt P23975).
T2 construct: purchased Eurofins Cerep
Put plainly: CEREP transporters-binding.

In a further data set the test system is Vero E6 cells. Particulars: read-out: Mean CC50; n=3.
In a further data set the target is T3, Abl Kinase (Homo sapiens, UniProt P00519).
T3 construct: purchased Eurofins Cerep
Put plainly: CEREP kinase inhibition. In kind it is biochemical.

A further data set concerns the target T4, Acetylcholinesterase (Homo sapiens, UniProt P22303).
T4 construct: purchased Eurofins Cerep
Put plainly: CEREP enzyme inhibition. In kind it is biochemical.

The subject of a further data set is NMDA Receptor (PCP site). Put plainly: CEREP ion channel-binding. Particulars: 30 µM.
The target of the next data set is T5, Dopamine Transporter (Homo sapiens, UniProt Q01959).
T5 construct: purchased Eurofins Cerep
Put plainly: CEREP transporters-binding.

The target in the next data set is T6, Human Cathepsin V (Homo sapiens, UniProt O60911).
T6 construct: assay run at Reaction Biology Corporation
Put plainly: biochemical.

For a further data set, the target named is hCoV-229E_PLpro2 (Human coronavirus 229E, UniProt P0C6X1). Put plainly: biochemical. Also noted: species or system 229E-CoV.
Data set [4] is described as follows: Media binding for in vitro cell systems. In kind it is in vitro ADME.
In a further data set the test system is Human Chymotrypsin. In kind it is biochemical.
For data set [5], the target named is T7, human Cav1.2/β2a/α2δ1 calcium channel (Homo sapiens, UniProt Q13936).
T7 construct: assay run at Metrion Biosciences Ltd; host or cells: HEK
Put plainly: hCav1.2 automated patch clamp. In kind it is cell-based. Particulars: read-out: CaV IC50. On the procedure: 1000 rcf for 2 min and resuspended in CHO-S-SFM II (Gibco) at a density of 3 million cells […]
Ionic currents were evaluated in the whole-cell configuration using the Qube384 automated planar patch clamp platform (Sophion Bioscience A/S, Ballerup, Denmark). QChip 384X plates, containing 10 patch clamp holes per well, were used to maximize success rate, which was routinely > 95%. For hERG experiments, the external solution was composed of (in mM): 140 NaCl, 2 KCl, 2 CaCl2, 1 MgCl2, 10 HEPES, 5 Glucose, pH 7.4, 350 mOsM. The internal solution contained (in mM): 20 KCl, 10 EGTA, 10 HEPES, 120 KF, pH 7.2, 335 mOsM. The hERG current was elicited from a holding potential of -80 mV by a voltage step to +40 mV for 500 ms, followed by a repolarizing ramp to -80 mV at -0.6 mV/ms. […] Peak hERG current was measured during the ramp. […]
This was followed by the addition of increasing concentrations of test compound, with each exposure lasting 5 minutes. Patch clamp data were analyzed using Analyzer Software 6.4.72 (Sophion Bioscience A/S, Ballerup, Denmark). Current amplitudes were determined by averaging the last 4 currents under each test condition. […]
Hz, and hCav1.2 current was measured as the peak current at 0 mV. […]
exposure lasting 5 minutes. Patch clamp data were analyzed using Analyzer Software 6.4.72. Current amplitudes were determined by averaging the last 4 currents under each test condition. […]
A general note: In patch-clamp work, channel activity is measured electrically.

The next data set concerns the target T8, Human Cathepsin L (Homo sapiens, UniProt P07711).
T8 construct: assay run at Reaction Biology Corporation
Put plainly: biochemical.

The next data set deals with T9, Human Cathepsin K (Homo sapiens, UniProt P43235).
T9 construct: assay run at Reaction Biology Corporation
Put plainly: biochemical.

For another data set, the target named is T10, Human Thrombin (Homo sapiens, UniProt P00734).
T10 construct: assay run at Reaction Biology Corporation
Put plainly: biochemical.

Where two headings read alike, the source gives them in different places. Bounds are passed on as bounds.

Sequence of hCoV-229E_PLpro2 (P0C6X1 1663-1914): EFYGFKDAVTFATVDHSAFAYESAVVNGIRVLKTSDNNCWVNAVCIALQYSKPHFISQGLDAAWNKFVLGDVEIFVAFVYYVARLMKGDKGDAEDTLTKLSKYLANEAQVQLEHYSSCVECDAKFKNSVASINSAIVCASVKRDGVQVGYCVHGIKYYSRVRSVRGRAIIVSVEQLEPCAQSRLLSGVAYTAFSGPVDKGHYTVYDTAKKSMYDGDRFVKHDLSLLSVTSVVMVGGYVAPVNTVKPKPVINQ
T3 sequence (P00519 whole entry): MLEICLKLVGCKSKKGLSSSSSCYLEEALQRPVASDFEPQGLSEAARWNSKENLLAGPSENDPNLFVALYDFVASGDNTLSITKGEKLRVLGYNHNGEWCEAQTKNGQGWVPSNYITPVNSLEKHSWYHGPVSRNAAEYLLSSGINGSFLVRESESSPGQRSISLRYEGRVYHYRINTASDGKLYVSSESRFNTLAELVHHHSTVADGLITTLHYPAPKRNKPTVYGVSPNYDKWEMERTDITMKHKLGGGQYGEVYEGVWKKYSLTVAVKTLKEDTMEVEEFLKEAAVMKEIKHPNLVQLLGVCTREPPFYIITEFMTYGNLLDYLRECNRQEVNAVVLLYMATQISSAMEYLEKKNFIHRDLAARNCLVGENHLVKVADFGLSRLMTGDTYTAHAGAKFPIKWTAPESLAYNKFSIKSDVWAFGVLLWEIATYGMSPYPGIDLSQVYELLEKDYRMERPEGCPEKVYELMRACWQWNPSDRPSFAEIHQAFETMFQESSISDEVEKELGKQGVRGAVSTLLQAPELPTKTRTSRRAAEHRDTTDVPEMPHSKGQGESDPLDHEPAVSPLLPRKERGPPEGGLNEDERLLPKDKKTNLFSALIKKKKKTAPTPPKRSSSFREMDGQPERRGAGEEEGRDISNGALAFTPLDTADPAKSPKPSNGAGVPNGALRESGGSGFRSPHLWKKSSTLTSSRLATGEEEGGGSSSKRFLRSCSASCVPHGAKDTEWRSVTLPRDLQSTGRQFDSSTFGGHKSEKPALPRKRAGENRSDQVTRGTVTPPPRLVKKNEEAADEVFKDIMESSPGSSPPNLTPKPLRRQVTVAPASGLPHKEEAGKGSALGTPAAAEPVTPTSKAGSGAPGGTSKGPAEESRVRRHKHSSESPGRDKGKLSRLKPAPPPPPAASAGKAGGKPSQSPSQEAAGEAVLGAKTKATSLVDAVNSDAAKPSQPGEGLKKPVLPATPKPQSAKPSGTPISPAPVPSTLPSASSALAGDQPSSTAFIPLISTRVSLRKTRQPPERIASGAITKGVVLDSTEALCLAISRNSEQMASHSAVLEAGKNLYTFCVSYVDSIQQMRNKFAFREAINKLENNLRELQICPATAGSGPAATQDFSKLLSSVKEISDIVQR
T1 sequence (P10275 whole entry): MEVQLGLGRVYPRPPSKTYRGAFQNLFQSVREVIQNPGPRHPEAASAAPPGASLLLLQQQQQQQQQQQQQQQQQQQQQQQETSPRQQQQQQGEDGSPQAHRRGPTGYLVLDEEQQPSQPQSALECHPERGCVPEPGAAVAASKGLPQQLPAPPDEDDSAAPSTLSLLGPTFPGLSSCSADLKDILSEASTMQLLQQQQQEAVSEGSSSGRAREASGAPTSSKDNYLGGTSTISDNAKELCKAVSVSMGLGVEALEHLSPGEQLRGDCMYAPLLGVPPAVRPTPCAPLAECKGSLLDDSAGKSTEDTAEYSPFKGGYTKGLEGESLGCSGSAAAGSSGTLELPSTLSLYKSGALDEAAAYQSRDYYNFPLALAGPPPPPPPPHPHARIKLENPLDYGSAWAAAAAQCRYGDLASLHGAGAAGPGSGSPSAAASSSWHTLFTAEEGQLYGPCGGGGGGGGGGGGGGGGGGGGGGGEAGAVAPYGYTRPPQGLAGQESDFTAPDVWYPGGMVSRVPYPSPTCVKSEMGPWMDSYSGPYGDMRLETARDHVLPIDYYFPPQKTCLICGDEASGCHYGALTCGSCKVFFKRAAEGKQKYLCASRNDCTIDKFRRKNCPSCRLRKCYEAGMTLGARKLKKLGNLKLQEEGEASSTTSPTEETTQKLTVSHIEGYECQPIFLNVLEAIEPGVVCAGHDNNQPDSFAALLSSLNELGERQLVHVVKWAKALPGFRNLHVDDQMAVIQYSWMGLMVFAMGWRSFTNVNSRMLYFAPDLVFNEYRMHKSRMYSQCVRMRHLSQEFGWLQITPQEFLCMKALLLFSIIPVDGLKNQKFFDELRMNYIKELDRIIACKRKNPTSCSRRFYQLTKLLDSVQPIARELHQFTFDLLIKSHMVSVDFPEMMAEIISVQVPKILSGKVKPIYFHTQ
T4 sequence (P22303 32-614): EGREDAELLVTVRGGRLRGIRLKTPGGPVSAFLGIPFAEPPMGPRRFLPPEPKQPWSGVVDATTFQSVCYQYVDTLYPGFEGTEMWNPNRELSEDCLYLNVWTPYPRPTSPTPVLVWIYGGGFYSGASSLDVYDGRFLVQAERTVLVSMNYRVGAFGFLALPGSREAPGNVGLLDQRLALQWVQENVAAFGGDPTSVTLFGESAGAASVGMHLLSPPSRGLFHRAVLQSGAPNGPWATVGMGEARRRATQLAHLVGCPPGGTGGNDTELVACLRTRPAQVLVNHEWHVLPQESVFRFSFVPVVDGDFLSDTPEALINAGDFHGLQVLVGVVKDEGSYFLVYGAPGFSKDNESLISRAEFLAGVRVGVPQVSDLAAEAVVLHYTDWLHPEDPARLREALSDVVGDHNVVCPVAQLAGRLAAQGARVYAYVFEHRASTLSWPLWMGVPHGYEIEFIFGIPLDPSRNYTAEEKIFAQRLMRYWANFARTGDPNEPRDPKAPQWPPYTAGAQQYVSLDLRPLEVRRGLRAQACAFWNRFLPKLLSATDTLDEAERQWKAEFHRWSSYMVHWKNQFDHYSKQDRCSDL
T6 sequence (O60911 114-334): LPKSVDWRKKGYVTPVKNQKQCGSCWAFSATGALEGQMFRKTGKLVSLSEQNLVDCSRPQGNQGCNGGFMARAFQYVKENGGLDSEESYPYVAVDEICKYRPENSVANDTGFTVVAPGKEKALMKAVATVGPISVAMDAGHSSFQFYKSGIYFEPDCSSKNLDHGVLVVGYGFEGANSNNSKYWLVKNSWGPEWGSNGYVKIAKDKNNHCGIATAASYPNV
T5 sequence (Q01959 whole entry): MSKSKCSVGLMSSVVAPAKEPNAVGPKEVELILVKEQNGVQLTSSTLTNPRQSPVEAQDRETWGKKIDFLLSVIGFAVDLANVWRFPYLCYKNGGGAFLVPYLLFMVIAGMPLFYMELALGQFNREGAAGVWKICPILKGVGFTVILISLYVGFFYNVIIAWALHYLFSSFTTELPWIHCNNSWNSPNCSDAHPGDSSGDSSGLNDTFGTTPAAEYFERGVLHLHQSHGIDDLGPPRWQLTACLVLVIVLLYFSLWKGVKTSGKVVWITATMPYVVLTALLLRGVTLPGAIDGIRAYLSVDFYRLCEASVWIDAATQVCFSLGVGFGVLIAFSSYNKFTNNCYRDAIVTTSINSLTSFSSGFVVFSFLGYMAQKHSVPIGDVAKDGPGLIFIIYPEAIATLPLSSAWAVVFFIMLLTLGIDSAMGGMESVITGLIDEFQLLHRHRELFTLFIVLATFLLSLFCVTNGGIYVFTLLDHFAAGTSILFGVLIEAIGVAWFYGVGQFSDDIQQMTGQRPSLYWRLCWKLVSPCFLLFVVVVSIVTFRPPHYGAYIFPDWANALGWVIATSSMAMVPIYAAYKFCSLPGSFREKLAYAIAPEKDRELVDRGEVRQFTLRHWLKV
T8 sequence (P07711 114-333): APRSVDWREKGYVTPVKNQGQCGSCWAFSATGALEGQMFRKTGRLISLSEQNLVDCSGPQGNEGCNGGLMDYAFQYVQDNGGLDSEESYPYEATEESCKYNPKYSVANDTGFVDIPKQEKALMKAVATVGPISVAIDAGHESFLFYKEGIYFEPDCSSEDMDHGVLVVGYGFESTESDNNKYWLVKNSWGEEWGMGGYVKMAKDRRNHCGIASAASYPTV
T2 sequence (P23975 whole entry): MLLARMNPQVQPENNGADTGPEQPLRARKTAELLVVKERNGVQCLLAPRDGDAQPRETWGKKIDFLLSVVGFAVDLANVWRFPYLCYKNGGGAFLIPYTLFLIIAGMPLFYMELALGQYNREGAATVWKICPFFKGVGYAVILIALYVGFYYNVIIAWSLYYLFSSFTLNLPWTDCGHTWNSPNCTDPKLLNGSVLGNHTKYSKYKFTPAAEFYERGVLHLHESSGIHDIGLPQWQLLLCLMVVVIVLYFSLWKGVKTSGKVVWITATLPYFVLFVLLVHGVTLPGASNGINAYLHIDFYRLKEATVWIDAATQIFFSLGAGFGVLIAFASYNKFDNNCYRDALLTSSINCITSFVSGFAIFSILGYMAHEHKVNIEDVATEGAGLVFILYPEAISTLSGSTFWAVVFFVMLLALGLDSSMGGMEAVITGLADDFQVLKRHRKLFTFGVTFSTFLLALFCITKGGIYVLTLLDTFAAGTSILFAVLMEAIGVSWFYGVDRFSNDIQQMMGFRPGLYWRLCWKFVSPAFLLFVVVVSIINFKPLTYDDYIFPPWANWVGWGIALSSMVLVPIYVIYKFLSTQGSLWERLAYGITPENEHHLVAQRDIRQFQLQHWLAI
T9 sequence (P43235 115-329): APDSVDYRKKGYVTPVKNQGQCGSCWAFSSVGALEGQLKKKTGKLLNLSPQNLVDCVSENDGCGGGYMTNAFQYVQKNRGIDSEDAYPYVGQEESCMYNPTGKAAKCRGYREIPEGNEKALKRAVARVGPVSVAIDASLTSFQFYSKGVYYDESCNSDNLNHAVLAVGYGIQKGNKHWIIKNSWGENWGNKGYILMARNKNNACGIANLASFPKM

Take `Cc1ccc(N2CCN(C)CC2)cc1C(=O)NC1(c2cc(-c3cnn(C)c3)nc3ccccc23)CC1` [Compound 4]: the IC50 (in [1]; against Human Cathepsin V; with Human Chymotrypsin; in [5]; against Human Cathepsin L; against Human Cathepsin K) was > 100 µM throughout. Moreover, the IC50 (commonly the concentration needed to halve the response being measured) on Human Thrombin was > 100 µM. Moreover, the inhibition (in general, the relative decrease from the control value, in per cent) at 30 µM in [2] was -10%; in data set [3] it was -6%; against Abl Kinase, 2%; against Acetylcholinesterase, 17%; on Dopamine Transporter it was 8%. Moreover, in the data set on Vero E6 cells, the CC50 (usually the concentration giving 50% cytotoxicity) was found to be 78.7 µM. Moreover, the % inhibition (in general, how much of the control response was suppressed) in the data set with NMDA Receptor (PCP site) was 14%. Moreover, the Ki (in general, a dissociation constant, usually derived from enzyme kinetics or from competition with a known ligand) on hCoV-229E_PLpro2 was > 10 µM. Further, the “activity on 229E PL^pro” value on hCoV-229E_PLpro2 was “nearly inactive”. Also, the fraction unbound is 0.749 in data set [4] (bovine, cell culture medium (2% HI-FBS in DMEM), media: 2% HI-FBS in DMEM, n = 4, read-out: Fu (CV)) and 0.916 in [4] (dNHBE medium, read-out: fraction unbound in the dNHBE medium).
